Converted amounts (≈) assume the structure as drawn.
How the values were obtained:
HUVEC [1] = assay: HUVEC proliferation, [3H]-thymidine incorporation assay; type: cell-based, human; settings: HUVEC
Description: (§1) The inhibitory effects of the new analogs on HUVEC proliferation were measured using a [3H]-thymidine incorporation assay. The log P values, used as an indicator of lipophilicity, were calculated using ALOGPS2.1 software. Aqueous solubility is a key physiochemical property relevant for oral absorption. We determined the solubility of each analog in 0.001 N HCl (pH=3), which represents the acidic human gastric fluid.
HUVEC Culture and Proliferation Assays. HUVEC (Lonza) were grown in EGM-2 bullet kit media (Lonza) and used at passage eight or lower. The H thymidine incorporation assays were conducted as previously described. Briefly, cells were seeded on 96-well plate at a concentration of 2000 cells/well and allowed to settle overnight. Drugs were added to each well in triplicate. After 24 hours, cells were treated with 1 μCi of [3H] thymidine for 6 h. Then cells were harvested and transferred to filtermats. The scintillation were counted and IC50 were determined using Prism software (version 6.0).

HUVEC [2] = assay: as above; type: cell-based; settings: Homo sapiens, mean ± SD, three independent experiments, read-out: HUVEC inhibition IC50
[3] = Aqueous solubility test in 0.001N HCl; type: physicochemical; settings: 0.001 N HCl aqueous buffer, simulated gastric fluid, kinetic from dmso stock; thermodynamic solubility, HPLC, pH=3, room temperature, 24 h
Description: as §1
Aqueous solubility test. In a 1.5 mL microcentrifuge tube, 2 ul of 10 mM compound stock solution in DMSO was added to 1 mL 0.001N HCl aqueous buffer to obtain saturated solution. The resulting mixture was shaken under 600 rpm for 24 h at room temperature. Then the tube was centrifuged at 13,000 rpm for 5 min to remove the undissolved compound. 100 ul of the supernatant was injected to an Agilent 6120 LC/MS for analysis. The mass spectrometry data was collected under SIM/Scan mode. The ions of compound Exact Mass+1 and Exact Mass+23 were monitored as selected ion monitoring (SIM) for peak area integration. Solubility was calculated according to the concentration standard curve of each compound.

CYP3A4 = molecular target: T1, CYP3A4 (Homo sapiens, UniProt P08684); assay: CYP3A4 enzyme assay (Vivid CYP3A4 Green Screening Kit); type: in vitro ADME; settings: dose-response, FIG. 2 / FIG. 6; read-out: IC50 for CYP3A4 inhibition
T1 construct: purchased ThermoFisher P2857; host or cells: baculosomes (insect-cell microsomes, own knowledge)
T1 sequence (P08684 whole entry): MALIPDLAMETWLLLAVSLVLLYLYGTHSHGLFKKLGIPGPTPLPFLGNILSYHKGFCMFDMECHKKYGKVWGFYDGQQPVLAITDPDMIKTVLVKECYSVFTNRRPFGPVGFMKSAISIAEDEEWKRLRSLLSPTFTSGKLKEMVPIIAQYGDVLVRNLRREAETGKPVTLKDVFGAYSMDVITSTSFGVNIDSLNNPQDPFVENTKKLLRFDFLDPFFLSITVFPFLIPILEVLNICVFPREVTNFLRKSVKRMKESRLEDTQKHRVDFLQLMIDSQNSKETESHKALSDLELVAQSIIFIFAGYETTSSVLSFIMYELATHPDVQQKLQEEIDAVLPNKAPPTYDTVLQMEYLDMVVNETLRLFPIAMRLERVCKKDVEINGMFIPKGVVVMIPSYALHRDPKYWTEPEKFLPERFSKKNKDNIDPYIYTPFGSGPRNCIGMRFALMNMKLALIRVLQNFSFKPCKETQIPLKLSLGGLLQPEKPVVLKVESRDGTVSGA
Description: And CYP3A4 inhibition was initially determined using a cell-free fluorescence-based assay at a final concentration of 1 μM (Table 2).
CYP3A4 enzyme assay. CYP3A4 enzyme activity was tested using Vivid™ CYP3A4 Green Screening Kit (ThermoFisher, #P2857) using the manufacturer's protocol. Briefly, CYP3A4 baculosomes and drugs were incubated 10 min at 37° C. Then Vivid® Substrates were added and the fluorescence (ex/em:485/520) were read every 1 min for 60 minute.

Row | SMILES | HUVEC proliferation / anti-angiogenic potency compared to itraconazole, in words (HUVEC [1]) | IC50 (HUVEC [2]) [nM] | solubility at 24 h [3] [µg/mL] | IC50 (CYP3A4) [nM]
1 | CCC(C)n1ncn(-c2ccc(N3CCN(c4ccc(OC[C@@H]5CO[C@@](Cn6ccnc6)(c6ccc(Cl)cc6Cl)O5)cc4)CC3)c(F)c2)c1=O (stereo partly drawn) [Compound 1, 4-(4-(4-(4-(((2S,4R)-2-((1H-imidazol-1-yl)methyl)-2-(2,4-dichlorophenyl)-1,3-dioxolan-4-yl)methoxy)phenyl)piperazin-1-yl)-3-fluorophenyl)-2-(sec-butyl)-2,4-dihydro-3H-1,2,4-triazol-3-one] | increased activities | 70.1 ± 15.4 | 17.2 (≈ 23.7 µM) | 
2 | CCC(C)n1ncn(-c2ccc(N3CCN(c4ccc(OC[C@@H]5CO[C@@](Cn6ccnc6)(c6ccc(Cl)cc6Cl)O5)cn4)CC3)cc2)c1=O (stereo partly drawn) [Compound 4, 4-(4-(4-(5-(((2S,4R)-2-((1H-imidazol-1-yl)methyl)-2-(2,4-dichlorophenyl)-1,3-dioxolan-4-yl)methoxy)pyridin-2-yl)piperazin-1-yl)phenyl)-2-(sec-butyl)-2,4-dihydro-3H-1,2,4-triazol-3-one] | increased activities | 69.1 ± 7 | 2.94 (≈ 4.16 µM) | 2600
3 | CCC(C)n1ncn(-c2ccc(N3CCN(c4ccc(OC[C@@H]5CO[C@@](Cn6ccnc6)(c6ccc(Cl)cc6Cl)O5)cn4)CC3)c(F)c2)c1=O (stereo partly drawn) [Compound 5, 4-(4-(4-(5-(((2S,4R)-2-((1H-imidazol-1-yl)methyl)-2-(2,4-dichlorophenyl)-1,3-dioxolan-4-yl)methoxy)pyridin-2-yl)piperazin-1-yl)-3-fluorophenyl)-2-(sec-butyl)-2,4-dihydro-3H-1,2,4-triazol-3-one] | increased activities | 68 ± 15.5 | 125 (≈ 173 µM) | 
4 | CCC(C)n1ncn(-c2ccc(N3CCN(c4ccc(OC[C@@H]5CO[C@@](Cn6ccnc6)(c6ccc(Cl)cc6Cl)O5)cc4)CC3)nc2)c1=O (stereo partly drawn) [Compound 6, 4-(6-(4-(4-(((2S,4R)-2-((1H-imidazol-1-yl)methyl)-2-(2,4-dichlorophenyl)-1,3-dioxolan-4-yl)methoxy)phenyl)piperazin-1-yl)pyridin-3-yl)-2-(sec-butyl)-2,4-dihydro-3H-1,2,4-triazol-3-one] | increased activities | 98.5 ± 36.3 | 7.99 (≈ 11.3 µM) | 
5 | CCC(C)n1ncn(-c2ccc(N3CCN(c4ccc(OC[C@@H]5CO[C@@](Cn6cncn6)(c6ccc(Cl)cc6Cl)O5)cn4)CC3)cc2)c1=O (stereo partly drawn) [Compound 101, 4-(4-(4-(5-(((2S,4R)-2-((1H-1,2,4-triazol-1-yl)methyl)-2-(2,4-dichlorophenyl)-1,3-dioxolan-4-yl)methoxy)pyridin-2-yl)piperazin-1-yl)phenyl)-2-(sec-butyl)-2,4-dihydro-3H-1,2,4-triazol-3-one] |  | 380 ± 50.8 | 0.114 (≈ 0.161 µM) | 3400
6 | CCC(C)n1ncn(-c2ccc(N3CCN(c4ccc(OC[C@@H]5CO[C@@](Cn6cncn6)(c6ccc(Cl)cc6Cl)O5)cn4)CC3)c(F)c2)c1=O (stereo partly drawn) [Compound 106, 4-(4-(4-(5-(((2S,4R)-2-((1H-1,2,4-triazol-1-yl)methyl)-2-(2,4-dichlorophenyl)-1,3-dioxolan-4-yl)methoxy)pyridin-2-yl)piperazin-1-yl)-3-fluorophenyl)-2-(sec-butyl)-2,4-dihydro-3H-1,2,4-triazol-3-one] |  | 173 ± 27.6 | 0.848 (≈ 1.17 µM) | 

— US12071430B2 (The Johns Hopkins University, priority 2011, dated 2024)
